Consider 36 compounds from US8895745B2, “Bicyclic heterocyclic compounds as FGFR inhibitors” (Astex Therapeutics Limited, priority 2006, dated 2014).

Counter-ions that a name gives are not always drawn. A value given as a limit tells only on which side of the number the result lay.

The test relates to LP-1 cell line. Nature of the test: Cell-based pERK ELISA method, LP-1 cells. The settings on record: Homo sapiens, LP-1, read-out: IC50 less than 1 μM or at least 50% inhibition at a concentration of 1 μM, LP-1 pERK ELISA.
Method: LP-1 or JIM-1 multiple myeloma cells were seeded in 96 well plates at 1×10^6 cells/ml in 200 ul per well in serum free media. […] Cells were incubated for 16 h at 37° C. prior to the addition of a test compound for 30 minutes. Test compounds were administered at a 0.1% final DMSO concentration. […] ELISA plates and standards were prepared according o the standard DuoSet protocols and the relative amounts of pERK to total ERK in each sample calculated according to the standard curve.
In particular, compounds of the invention were tested against the LP-1 cell line (DSMZ no.: ACC 41) derived from human multiple myeloma.
Consider `COc1cc(-c2ccn3c(-c4cccc(NC(=O)NCC(F)(F)F)c4)cnc3c2)ccc1F` [Example 142, 1-{3-[7-(4-Fluoro-3-methoxy-phenyl)-imidazo[1,2-a]pyridin-3-yl]-phenyl}-3-(2,2,2-trifluoro-ethyl)-urea Hydrochloride], for which the IC50 was less than 1 µM.

Turning to `O=C(NCC(F)(F)F)Nc1cccc(-c2cnc3cc(-c4cccc(F)c4)ccn23)c1` [Example 143, 1-{3-[7-(3-Fluoro-phenyl)-imidazo[1,2-a]pyridin-3-yl]-phenyl}-3-(2,2,2-trifluoro-ethyl)-urea Hydrochloride], the IC50 was less than 1 µM.

For the compound `O=C(NCC(F)(F)F)Nc1cccc(-c2cnc3cc(-c4ccccc4)ccn23)c1` [Example 149, 1-[3-(7-Phenyl-imidazo[1,2-a]pyridin-3-yl)-phenyl]-3-(2,2,2-trifluoro-ethyl)-urea Hydrochloride], the IC50 is less than 1 µM.

As for `O=C(NCC(F)(F)F)Nc1cccc(-c2cnc3cc(-c4cccc(C(=O)N5CCOCC5)c4)ccn23)c1` [Example 150, 1-(3-{7-[3-(Morpholine-4-carbonyl)-phenyl]-imidazo[1,2-a]pyridin-3-yl}-phenyl)-3-(2,2,2-trifluoro-ethyl)-urea Hydrochloride], the IC50 is less than 1 µM.

Take `COc1ncc(-c2cnc3c(-c4cccc(NC(=O)NCC(F)(F)F)c4)cnn3c2)cn1` [Example 151, 1-{3-[6-(2-Methoxy-pyrimidin-5-yl)-pyrazolo[1,5-a]pyrimidin-3-yl]-phenyl}-3-(2,2,2-trifluoro-ethyl)-urea]: the IC50 is less than 1 µM.

`O=C(NCC(F)(F)F)Nc1cccc(-c2cnn3cc(-c4cn[nH]c4)cnc23)c1` [Example 155, 1-{3-[6-(1H-Pyrazol-4-yl)-pyrazolo[1,5-a]pyrimidin-3-yl]-phenyl}-3-(2,2,2-trifluoro-ethyl)-urea Hydrochloride]: the IC50 is less than 1 µM.

Regarding `Cn1cc(-c2cnc3c(-c4cccc(NC(=O)NCC(F)(F)F)c4)cnn3c2)ccc1=O` [Example 158, 1-{3-[6-(1-Methyl-6-oxo-1,6-dihydro-pyridin-3-yl)-pyrazolo[1,5-a]pyrimidin-3-yl]-phenyl}-3-(2,2,2-trifluoro-ethyl)-urea], the IC50 is less than 1 µM.

As to `CCNC(=O)Nc1cccc(-n2cnc3cc(-c4ccc(F)cc4)ccc32)c1` [Example 159, 1-Ethyl-3-{3-[5-(4-fluoro-phenyl)-benzoimidazol-1-yl]-phenyl}-urea Hydrochloride], the IC50 was less than 1 µM.

Turning to `O=C(NCC(F)(F)F)Nc1cccc(-c2cnn3cc(-c4cccc(C(=O)N5CCOCC5)c4)cnc23)c1` [Example 165, 1-(3-{6-[3-(Morpholine-4-carbonyl)-phenyl]-pyrazolo[1,5-a]pyrimidin-3-yl}-phenyl)-3-(2,2,2-trifluoro-ethyl)-urea], the IC50 is less than 1 µM.

As to `CCNC(=O)Nc1cccc(-n2cnc3cc(-c4ccc(F)cc4)cnc32)c1` [Example 169, 1-Ethyl-3-{3-[6-(4-fluoro-phenyl)-imidazo[4,5-b]pyridin-3-yl]-phenyl}-urea], the IC50 is less than 1 µM.

In the case of `O=C(NCC(F)(F)F)Nc1cccc(-c2cnc3cc(-c4ccc(F)nc4)ccn23)c1` [Example 174, 1-{3-[7-(6-Fluoro-pyridin-3-yl)-imidazo[1,2-a]pyridin-3-yl]-phenyl}-3-(2,2,2-trifluoro-ethyl)-urea], the IC50 was less than 1 µM.

On to `O=C(NCC(F)(F)F)Nc1cccc(-n2cnc3cc(-c4ccc(F)cc4)ccc32)c1` [Example 175, 1-{3-[5-(4-Fluoro-phenyl)-benzoimidazol-1-yl]-phenyl}-3-(2,2,2-trifluoro-ethyl)-urea], for which the IC50 was less than 1 µM.

In the case of `CCS(=O)(=O)N1CCN(c2ccn3c(-c4cccc(NC(=O)NCC(F)(F)F)c4)cnc3c2)CC1` [Example 177, 1-{3-[7-(4-Ethanesulfonyl-piperazin-1-yl)-imidazo[1,2-a]pyridin-3-yl]-phenyl}-3-(2,2,2-trifluoro-ethyl)-urea hydrochloride salt], the IC50 was less than 1 µM.

As to `O=C(NCC(F)(F)F)Nc1cccc(-n2cnc3cc(-c4ccc(F)cc4)cnc32)c1` [Example 179], the IC50 is less than 1 µM.

In the case of `Cc1ccc(-c2cnc3c(-c4cccc(NC(=O)NCC(F)(F)F)c4)cnn3c2)o1` [Example 180], the IC50 is less than 1 µM.

With `O=C(NCC(F)(F)F)Nc1cccc(-c2cnc3cc(-c4cccc(CN5CCOCC5)c4)ccn23)c1` [Example 184, 1-{3-[7-(3-Morpholin-4-ylmethyl-phenyl)-imidazo[1,2-a]pyridin-3-yl]-phenyl}-3-(2,2,2-trifluoro-ethyl)-urea Hydrochloride], the IC50 is less than 1 µM.

On to `O=C(NCC(F)(F)F)Nc1cccc(-c2cnn3cc(-c4cccc(CN5CCOCC5)c4)cnc23)c1` [Example 189, 1-{3-[6-(3-Morpholin-4-ylmethyl-phenyl)-pyrazolo[1,5-a]pyrimidin-3-yl]-phenyl}-3-(2,2,2-trifluoro-ethyl)-urea Hydrochloride], for which the IC50 was less than 1 µM.

For the compound `CC(=O)N1CCC(Oc2cccc(-c3ccn4c(-c5cccc(NC(=O)NCC(F)(F)F)c5)cnc4c3)c2)CC1` [Example 193, 1-(3-{7-[3-(1-Acetyl-piperidin-4-yloxy)-phenyl]-imidazo[1,2-a]pyridin-3-yl}-phenyl)-3-(2,2,2-trifluoro-ethyl)-urea Formate], the IC50 was less than 1 µM.

Regarding `CCNC(=O)Nc1cncc(-c2cnn3cc(-c4ccc(F)cc4)cnc23)c1` [Example 197, 1-Ethyl-3-{5-[6-(4-fluoro-phenyl)-pyrazolo[1,5-a]pyrimidin-3-yl]-pyridin-3-yl}-urea], the IC50 was less than 1 µM.

`O=C(NCC(F)(F)F)Nc1cccc(-c2cnc3cc(-c4cccc(OC5CCNCC5)c4)ccn23)c1` [Example 200, 1-(3-{7-[3-(Piperidin-4-yloxy)-phenyl]-imidazo[1,2-a]pyridin-3-yl}-phenyl)-3-(2,2,2-trifluoro-ethyl)-urea]: the IC50 is less than 1 µM.

`O=C(NCC(F)(F)F)Nc1cccc(-c2cnc3cc(N4CCC4)ccn23)c1` [Example 202, 1-[3-(7-Azetidin-1-yl-imidazo[1,2-a]pyridin-3-yl)-phenyl]-3-(2,2,2-trifluoro-ethyl)-urea]: the IC50 was less than 1 µM.

For the compound `CCNC(=O)Nc1cc(-c2cnn3cc(-c4ccc(F)cc4)cnc23)ccn1` [Example 204, 1-Ethyl-3-{4-[6-(4-fluoro-phenyl)-pyrazolo[1,5-a]pyrimidin-3-yl]-pyridin-2-yl}-urea], the IC50 was less than 1 µM.

Regarding `O=C1CN(Cc2cccc(-c3ccn4c(-c5cccc(NC(=O)NCC(F)(F)F)c5)cnc4c3)c2)CCN1` [Example 206, 1-(3-{7-[3-(3-Oxo-piperazin-1-ylmethyl)-phenyl]-imidazo[1,2-a]pyridin-3-yl}-phenyl)-3-(2,2,2-trifluoro-ethyl)-urea], the IC50 is less than 1 µM.

In the case of `O=C(NCC(F)(F)F)Nc1cccc(-c2cnc3cc(-c4ccc(=O)n(CCCN5CCCCC5)c4)ccn23)c1` [Example 208, 1-(3-{7-[6-Oxo-1-(3-piperidin-1-yl-propyl)-1,6-dihydro-pyridin-3-yl]-imidazo[1,2-a]pyridin-3-yl}-phenyl)-3-(2,2,2-trifluoro-ethyl)-urea Hydrochloride], the IC50 is less than 1 µM.

As for `O=C(NCC(F)(F)F)Nc1cccc(-c2cnc3cc(-c4ccnc(OC5CCOCC5)c4)ccn23)c1` [Example 212, 1-(3-{7-[2-(Tetrahydro-pyran-4-yloxy)-pyridin-4-yl]-imidazo[1,2-a]pyridin-3-yl}-phenyl)-3-(2,2,2-trifluoro-ethyl)-urea], the IC50 is less than 1 µM.

In the case of `N#Cc1cc(NC(=O)NCC(F)(F)F)cc(-c2cnc3cc(-c4ccc(F)cc4)ccn23)c1` [Example 214, 1-{3-Cyano-5-[7-(4-fluoro-phenyl)-imidazo[1,2-a]pyridin-3-yl]-phenyl}-3-(2,2,2-trifluoro-ethyl)-urea], the IC50 was less than 1 µM.

Take `CCNC(=O)Nc1cc(OC)cc(-c2cnc3cc(-c4ccc(F)cc4)ccn23)c1` [Example 216, 1-Ethyl-3-{3-[7-(4-fluoro-phenyl)-imidazo[1,2-a]pyridin-3-yl]-5-methoxy-phenyl}-urea]: the IC50 was less than 1 µM.

In the case of `COc1cc(NC(=O)NCC(F)(F)F)cc(-c2cnc3cc(-c4ccc(F)cc4)ccn23)c1` [Example 217, 1-{3-[7-(4-Fluoro-phenyl)-imidazo[1,2-a]pyridin-3-yl]-5-methoxy-phenyl}-3-(2,2,2-trifluoro-ethyl)-urea], the IC50 is less than 1 µM.

On to `O=C(NCC(F)(F)F)Nc1cncc(-c2cnc3cc(-c4ccc(F)cc4)ccn23)c1` [Example 218, 1-{5-[7-(4-Fluoro-phenyl)-imidazo[1,2-a]pyridin-3-yl]-pyridin-3-yl}-3-(2,2,2-trifluoro-ethyl)-urea], for which the IC50 is less than 1 µM.

As to `O=C(NCC(F)(F)F)Nc1cccc(-c2cnc3cc(-c4cccc(CO)c4)ccn23)c1` [Example 219, 1-{3-[7-(3-Hydroxy-methyl-phenyl)-imidazo[1,2-a]pyridin-3-yl]-phenyl}-3-(2,2,2-trifluoro-ethyl)-urea], the IC50 is less than 1 µM.

Take `CN1CCN(C(=O)c2cccc(-c3ccn4c(-c5cccc(NC(=O)NCC(F)(F)F)c5)cnc4c3)c2)CC1` [Example 220, 1-(3-{7-[3-(4-Methyl-piperazine-1-carbonyl)-phenyl]-imidazo[1,2-a]pyridin-3-yl}-phenyl)-3-(2,2,2-trifluoro-ethyl)-urea]: the IC50 was less than 1 µM.

For `Cc1ccn2c(-c3cccc(NC(=O)NCC(F)(F)F)c3)cnc2c1` [Example 225], the IC50 is less than 1 µM.

For `CCNC(=O)Nc1cccc(-c2cnc3cc(-c4cccc(CN5CCN(C)CC5)c4)ccn23)c1` [Example 227], the IC50 was less than 1 µM.

For the compound `O=C(NCC(F)(F)F)Nc1cccc(-c2cnc3cc(Cl)ccn23)c1` [Example 228], the IC50 is less than 1 µM.

Take `O=C(NCC(F)F)Nc1cccc(-c2cnc3cc(-c4ccc(F)cc4)ccn23)c1` [Example 229, 1-(2,2-Difluoro-ethyl)-3-{3-[7-(4-fluoro-phenyl)-imidazo[1,2-a]pyridin-3-yl]-phenyl}-urea Hydrochloride]: the IC50 was less than 1 µM.

On to `Cc1nn(C)c(C)c1-c1ccn2c(-c3cccc(NC(=O)NCC(F)(F)F)c3)cnc2c1` [Example 234, 1-(2,2,2-Trifluoro-ethyl)-3-{3-[7-(1,3,5-trimethyl-1H-pyrazol-4-yl)-imidazo[1,2-a]pyridin-3-yl]-phenyl}-urea], for which the IC50 was less than 1 µM.
